Source: PubChem BioAssay AID248 (DTP/NCI, 2004)
“And” between values parts separate entries of the source, which are not always exact repeats. Identical values can stand only once. Toxic doses and inconclusive results are not listed.

Tested on: L1210 leukemia ip in BDF1 mice, survival T/C
Experiment: NCI In Vivo Anticancer Drug Screen. Data for tumor model L1210 Leukemia (intraperitoneal) in B6D2F1 (BDF1) mice
Details: endpoint: mean survival time, higher = longer survival
Procedure, shortened: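 Tumor cells were implanted, animals were treated, and survival was followed. The result divides the treated measurement by the vehicle-control measurement.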

Nc1nc(=S)c2[nH]cnc2[nH]1
T/C (dose: 0.04 mg/kg/injection, schedule: Q01DX Z (ip), vehicle: carboxymethylcellulose (CMC)): 113 % of control | T/C (dose: 0.06 mg/kg/injection, schedule: Q01DX009 (ip), vehicle: alkali diluted with saline): 106 % of control and 108 % of control | T/C (dose: 0.06 mg/kg/injection, schedule: Q01DX Z (ip), vehicle: carboxymethylcellulose (CMC)): 105 % of control | T/C (dose: 0.06 mg/kg/injection, schedule: Q#A X Z (ip), vehicle: saline): 121 % of control | T/C (dose: 0.09 mg/kg/injection, schedule: Q01DX Z (ip), vehicle: carboxymethylcellulose (CMC)): 109 % of control | T/C (dose: 0.12 mg/kg/injection, schedule: Q01DX009 (ip), vehicle: alkali diluted with saline): 111 % of control | T/C (dose: 0.13 mg/kg/injection, schedule: Q01DX Z (ip), vehicle: saline): 111 % of control | T/C (dose: 0.13 mg/kg/injection, schedule: Q01DX Z (sc), vehicle: saline): 107 % of control | T/C (dose: 0.14 mg/kg/injection, schedule: Q01DX Z (ip), vehicle: carboxymethylcellulose (CMC)): 110 % of control | T/C (dose: 0.22 mg/kg/injection, schedule: Q01DX Z (ip), vehicle: carboxymethylcellulose (CMC)): 115 % of control | T/C (dose: 0.22 mg/kg/injection, schedule: Q07DX003 (ip), vehicle: saline): 113 % of control | T/C (dose: 0.25 mg/kg/injection, schedule: Q01DX Z (sc), vehicle: saline): 116 % of control | T/C (dose: 0.33 mg/kg/injection, schedule: Q01DX015 (ip), vehicle: alkali diluted with saline): 102 % of control | T/C (dose: 0.33 mg/kg/injection, schedule: Q01DX Z (ip), vehicle: carboxymethylcellulose (CMC)): 119 % of control | T/C (dose: 0.37 mg/kg/injection, schedule: Q03DX006 (ip), vehicle: saline): 114 % of control | T/C (dose: 0.43 mg/kg/injection, schedule: Q01DX009 (ip), vehicle: alkali diluted with saline): 152 % of control | T/C (dose: 0.44 mg/kg/injection, schedule: Q07DX003 (ip), vehicle: saline): 122 % of control | T/C (dose: 0.5 mg/kg/injection, schedule: Q01DX006 (iv), vehicle: saline): 106 % of control | T/C (dose: 0.5 mg/kg/injection, schedule: Q01DX Z (im), vehicle: saline): 109 % of control | T/C (dose: 0.5 mg/kg/injection, schedule: Q01DX Z (ip), vehicle: carboxymethylcellulose (CMC)): 111 % of control | T/C (dose: 0.5 mg/kg/injection, schedule: Q01DX Z (oral), vehicle: saline): 113 % of control | T/C (dose: 0.55 mg/kg/injection, schedule: Q01DX015 (ip), vehicle: alkali diluted with saline): 151 % of control | T/C (dose: 0.55 mg/kg/injection, schedule: Q## X015 (ip), vehicle: alkali diluted with saline): 151 % of control | T/C (dose: 0.75 mg/kg/injection, schedule: Q03DX006 (ip), vehicle: saline): 118 % of control | T/C (dose: 0.88 mg/kg/injection, schedule: Q01DX001 (ip), vehicle: saline): 115 % of control | T/C (dose: 0.88 mg/kg/injection, schedule: Q03HX016 (ip), vehicle: alkali diluted with saline): 150 % of control | T/C (dose: 0.88 mg/kg/injection, schedule: Q03HX024 (ip), vehicle: alkali diluted with saline): 152 % of control | T/C (dose: 0.9 mg/kg/injection, schedule: Q01DX015 (ip), vehicle: alkali diluted with saline): 152 % of control | T/C (dose: 1.0 mg/kg/injection, schedule: Q01DX006 (iv), vehicle: saline): 112 % of control | T/C (dose: 1.0 mg/kg/injection, schedule: Q01DX Z (ip), vehicle: carboxymethylcellulose (CMC)): 152 % of control | T/C (dose: 1.0 mg/kg/injection, schedule: Q01DX Z (oral), vehicle: saline): 116 % of control | T/C (dose: 1.2 mg/kg/injection, schedule: Q03HX032 (ip), vehicle: alkali diluted with saline): 151 % of control and 152 % of control | T/C (dose: 1.5 mg/kg/injection, schedule: Q03DX006 (ip), vehicle: saline): 154 % of control | T/C (dose: 1.75 mg/kg/injection, schedule: Q01DX001 (ip), vehicle: saline): 109 % of control | T/C (dose: 1.8 mg/kg/injection, schedule: Q04DX002 (ip), vehicle: alkali diluted with saline): 110 % of control | T/C (dose: 2.0 mg/kg/injection, schedule: Q01DX Z (sc), vehicle: saline): 153 % of control | T/C (dose: 2.5 mg/kg/injection, schedule: Q01DX010 (ip), vehicle: other): 123 % of control | T/C (dose: 3.5 mg/kg/injection, schedule: Q01DX001 (ip), vehicle: saline): 109 % of control and 120 % of control | T/C (dose: 3.5 mg/kg/injection, schedule: Q04DX008 (ip), vehicle: alkali diluted with saline): 154 % of control | T/C (dose: 3.7 mg/kg/injection, schedule: Q01DX Z (ip), vehicle: carboxymethylcellulose (CMC)): 110 % of control | T/C (dose: 4.0 mg/kg/injection, schedule: Q01DX Z (im), vehicle: saline): 119 % of control | T/C (dose: 4.0 mg/kg/injection, schedule: Q01DX Z (ip), vehicle: carboxymethylcellulose (CMC)): 93 % of control | T/C (dose: 4.0 mg/kg/injection, schedule: Q01DX Z (sc), vehicle: saline): 106 % of control | T/C (dose: 5.0 mg/kg/injection, schedule: Q01DX010 (ip), vehicle: other): 98 % of control and 104 % of control | T/C (dose: 5.3 mg/kg/injection, schedule: Q04DX012 (ip), vehicle: alkali diluted with saline): 153 % of control
